Results from patent publication US20060281088A1, “Markers for lxr activation” (priority 2003, published 2006).

Experiments:
[1] = tested on: THP1 macrophages; assay: Gene expression measurement by Gene Chip Microarray in THP1 macrophages; type: cell-based, human; settings: Gene Chip Microarray analysis, result in words
Description: Cells were incubated at 37° C. and 5.2% CO2. For experimental treatments, cells were seeded at a density of 1×10^6/ml in 6-well plates in medium containing 100 nM phorbol 12-myristate 13-acetate (PMA) for 72 hours to fully differentiate them into adherent macrophages. The medium was then replaced by culture medium containing PMA with vehicle (DMSO) or test compound for 6 or 24 hours prior to harvesting. Total RNA was isolated using the TriZol reagent (Life Technologies) or the RNeasy mini kit (Qiagen) according to the manufacturer's protocols. To remove contaminating DNA, the samples were treated with RNAse free DNAse (GibCo).
Synthesis of first and second strand cDNA were performed using the SuperScript Choice Gene Chip Kit (Life Technologies) and reagents from Gibco. The double stranded cDNA, containing an incorporated T7 RNA polymerase binding site, was purified by extraction with a mix of phenol:chloroform:isoamylalcohol (Life Technologies). The organic and aqueous phases were separated by Phase Lock Gel (Eppendorf) and double-stranded cDNA was recovered by precipitation according to the manufacturer's protocol and then resuspended in water.
The double-stranded cDNA was converted to biotin-labeled cRNA by in vitro transcription (IVT) using a T7 kit (Ambion) and biotin-containing ribonucleotides (Enzo-LOXO GmbH). […]

[2] = tested on: THP1 macrophages; assay: Gene expression measurement by Taqman quantitative RT-PCR in THP1 macrophages; type: cell-based, human; settings: result in words
Source text: Three oligonucleotides are used: a forward primer, a reverse primer, and a probe. All of them are specific for the target and are able to bind to it. The TaqMan assay uses a probe technology that exploits 5′→3′-nuclease activity of an enzyme, the most commonly used being Taq polymerase. The assay efficiency is largely dependent on this 5′→3′ nuclease activity. In this regard one should be careful in choosing a suitable polymerase. […] The probe is an oligonucleotide with a reporter dye at the 5′ end and a quencher dye at the 3′ end. The fluorescent reporter dye is attached covalently to the 5′ end and can be FAM (6-carboxyfluorescein), TET (tetrachloro-6-carboxyfluorescein), JOE (2,7-dimethoxy-4,5-dichloro-6-carboxyfluorescein), HEX (hexacholoro-6-carboxyfluorescein), or VIC. The reporter is quenched by TAMRA (6-carboxytetramethylrhodamine), bound to the 3′ end by a linker arm. […] An advantage of using DABCYL in the TaqMan probes is its reduced autofluorescence compared with TAMRA When the probe is intact the quencher dye absorbs the fluorescence of the reporter dye due to the proximity between both. […] By the 5′-exonuclease activity of the Taq:polymerase the probe is hydrolyzed and the reporter dye is separated from the quencher, resulting in an increase in fluorescence emission. […]

O=S(=O)(c1ccccc1)N(CC(F)(F)F)c1ccc(C(O)(C(F)(F)F)C(F)(F)F)cc1 [T0901317]
Gene expression changes of the listed marker genes (ABCA1, ABCG1, APOC1, APOE, ASM3A, C3F, CDC42EP4, CXCR4 ... PRKCI) [1]: strong induction | Gene expression changes for ABCA1, ABCG1, APOC1, APOE, ASM3A, CDC42EP4, CXCR4, FASN, LDLR, NR1H3, VLDLR [2]: robust and significant increase in expression
